Patent publication KR20210056931A, “피리메타민을 유효성분으로 포함하는 면역 관련 질환의 치료 또는 예방용 약학 조성물” (priority 2019, dated 2021)
“And” between values parts separate entries of the source, which are not always exact repeats. Equal entries are not always repeated.

Legend:
TNF-α [1] = assay: TNF-α expression inhibition in Raw264.7, comparison with DMARDs, Experiment 2-1; format: cell-based; settings: 6 h pretreatment, LPS 10 ng/mL, MTX 344 nM, HCQ 610 nM, PYR 50 ng/mL, CsA 391 ng/mL, AZA 25 ng/mL, SFZ 750 ng/mL
[2] = Hematological examination, Experiment 6-4; format: in vivo, mouse
[3] = tested on: rheumatoid arthritis model, DBA-1J Mice [류마티스 관절염 모델]; assay: Arthritis score in rheumatoid arthritis animal model, Experiment 5; format: in vivo, mouse; settings: G3: MTX 2 mg/kg/2day PO
[4] = tested on: rheumatoid arthritis model, DBA-1J Mice [류마티스 관절염 모델]; assay: Paw edema in rheumatoid arthritis animal model, Experiment 5; format: in vivo, mouse; settings: G3: MTX 2 mg/kg/2day PO
[5] = tested on: rheumatoid arthritis model, DBA-1J Mice [류마티스 관절염 모델]; assay: Histopathological examination in rheumatoid arthritis animal model, Experiment 5; format: in vivo, mouse; settings: Day 14; G3: MTX 2 mg/kg/2day PO
[6] = tested on: rheumatoid arthritis model, DBA-1J Mice [류마티스 관절염 모델]; assay: Paw edema in rheumatoid arthritis animal model, dose regimen study, Experiment 6; format: in vivo, mouse; settings: Day 14, MTX 2 mg/kg/2day PO, HCQ 80 mg/kg/day QD PO, PG 25 mg/kg/day QD PO, TFC 10 mg/kg/day BID PO (G3-G6)
[7] = tested on: rheumatoid arthritis model, DBA-1J Mice [류마티스 관절염 모델]; assay: Arthritis score in rheumatoid arthritis animal model, dose regimen study, Experiment 6; format: in vivo, mouse; settings: HCQ 80 mg/kg/day QD PO, PG 25 mg/kg/day QD PO; for Arthritis score: MTX 2 mg/kg/2day PO, TFC 10 mg/kg/day BID PO (G3-G6); for Arthritis score (in words): TFC 10 mg/kg/day BID PO
[8] = tested on: rheumatoid arthritis model, DBA-1J Mice [류마티스 관절염 모델]; assay: Histopathological examination in rheumatoid arthritis animal model, dose regimen study, Experiment 6; format: in vivo, mouse; settings: Day 14; MTX 2 mg/kg/2day PO, HCQ 80 mg/kg/day QD PO, PG 25 mg/kg/day QD PO, TFC 10 mg/kg/day BID PO (G3-G6)
TNF-α [9] = assay: Plasma TNF-α (ELISA), Experiment 6-5; format: in vivo, mouse; settings: for Plasma TNF-α: Day 14, MTX 2 mg/kg/2day PO, HCQ 80 mg/kg/day QD PO, PG 25 mg/kg/day QD PO, TFC 10 mg/kg/day BID PO (G3-G6); for Plasma TNF-α (in words): HCQ, PG, TFC groups
TNF-α [10] = assay: TNF-α expression inhibition in Raw264.7, comparison with tofacitinib, Experiment 2-2; format: cell-based; settings: 6 h pretreatment, LPS 10 ng/mL 16 h
TNF-α [11] = assay: TNF-α expression inhibition in Raw264.7, comparison with hydroxychloroquine and proguanil, Experiment 2-3; format: cell-based; settings: for TNF-α expression: PY 0.2 uM, HCQ 0.61 uM, PG 5 uM, LPS 10 ng/mL, 24 h co-treatment
STAT3 = STAT3 activity (nuclear translocation) in Raw264.7, Experiment 3; format: cell-based; settings: 50 ng/ml, 2 h pretreatment; LPS 100 ng/ml 16 h; Fig. 6
[12] = Day 14, G3: MTX 2 mpk qd PO, G12: Py 15 mpk qd PO

Compound: Cn1cnc([N+](=O)[O-])c1Sc1ncnc2nc[nH]c12 [AZA, Azathioprine]
- TNF-α expression (TNF-α [1]; 2hr): 405.0 pg/mL
- TNF-α expression (TNF-α [1]; 24hr): 3539.9 pg/mL

Compound: O=C(O)c1cc(/N=N/c2ccc(S(=O)(=O)Nc3ccccn3)cc2)ccc1O [SFZ, Sulfasalazine]
- TNF-α expression (TNF-α [1]; 2hr): 280.7 pg/mL
- TNF-α expression (TNF-α [1]; 24hr): 3578.2 pg/mL

Compound: CN(Cc1cnc2nc(N)nc(N)c2n1)c1ccc(C(=O)N[C@@H](CCC(=O)O)C(=O)O)cc1 [메토트렉세이트, Methotrexate]
- %BASO [2, 12]: 0.6±0.3%
- %EOS [2, 12]: 1.8±1.7%
- %LUC [2, 12]: 2.8±1.2%
- %LYM [2, 12]: 40.8±9.9%
- %MONO [2, 12]: 4.2±1.5%
- %NEUT [2, 12]: 49.8±11.7%
- %RETIC [2, 12]: 0.63±1.16%
- HCT [2, 12]: 38.2±6.0%
- HDW [2, 12]: 2.15 ± 0.13 g/dL
- HGB [2, 12]: 10.9 ± 1.7 g/dL
- MCH [2, 12]: 12.8 ± 0.8 pg
- MCV [2, 12]: 44.8 ± 2.9 fL
- MPV [2, 12]: 7 ± 0.8 fL
- PLT [2, 12]: 440±386 10^3 cell/μL
- RDW [2, 12]: 23.4±3.7%
- WBC [2, 12]: 4.55±0.52 10^3 cell/μL
- Hematotoxicity (in words) ([2]; G3 (MTX)): 적혈구와 혈소판 수치가 감소하는 독성이 나타났다
- Arthritis score ([3]; Day 0): 2.3±1.6 Total score
- Arthritis score ([3]; Day 2): 2.9±1.8 Total score
- Arthritis score ([3]; Day 4): 4.6±2.9 Total score
- Arthritis score ([3]; Day 7): 5.7±2.5 Total score
- Arthritis score ([3]; Day 9): 6.0±2.4 Total score
- Arthritis score ([3]; Day 11): 6.6±2.4 Total score
- Arthritis score ([3]; Day 14): 6.9±2.5 Total score
- Paw edema, LEFT ([4]; Day 0): 0.10 ± 0.01 mL
- Paw edema, RIGHT ([4]; Day 0): 0.10 ± 0.01 mL
- Paw edema, LEFT ([4]; Day 14): 0.13 ± 0.04 mL
- Paw edema, RIGHT ([4]; Day 14): 0.16 ± 0.05 mL
- Bone destruction [5]: 1.3±1.6
- Cartilage damage [5]: 1.0±1.4
- Histopathological examination, total [5]: 3.6±4.5
- Synovium proliferation [5]: 1.3±1.6
- Paw edema, HL, mean [6]: 0.16 mL
- Paw edema, HR, mean [6]: 0.16 mL
- Paw edema, HL, individual animal ([6]; listed as MTX): 0.19 mL and 0.16 mL and 0.15 mL and 0.17 mL and 0.18 mL and 0.11 mL
- Paw edema, HR, individual animal ([6]; listed as MTX): 0.17 mL and 0.14 mL and 0.19 mL and 0.20 mL and 0.13 mL and 0.11 mL
- Arthritis score ([7]; Day 0): 2.5±1.0 total score
- Arthritis score ([7]; Day 2): 3.7±1.6 total score
- Arthritis score ([7]; Day 5): 5.0±2.4 total score
- Arthritis score ([7]; Day 7): 6.0±2.9 total score
- Arthritis score ([7]; Day 9): 6.3±2.9 total score
- Arthritis score ([7]; Day 12): 7.2±2.7 total score
- Arthritis score ([7]; Day 14): 7.8±3.4 total score
- Bone destruction [8]: 1.8±1.0
- Cartilage damage [8]: 1.0±0.6
- Histopathological examination, total [8]: 5.7±1.2
- Synovium proliferation [8]: 2.8±0.4
- TNF-α expression (TNF-α [1]; 2hr): 312.8 pg/mL
- TNF-α expression (TNF-α [1]; 24hr): 3464.6 pg/mL
- Plasma TNF-α (TNF-α [9]): 769.1 pg/mL

Compound: C[C@@H]1CCN(C(=O)CC#N)C[C@@H]1N(C)c1ncnc2[nH]ccc12 [토파시티닙]
- TNF-α expression (TNF-α [10]; TFN 100 nM): 535.7 pg/mL
- TNF-α expression (TNF-α [10]; TFN 200 nM): 538.5 pg/mL
- Paw edema, HL, mean [6]: 0.15 mL
- Paw edema, HR, mean [6]: 0.16 mL
- Paw edema, HL, individual animal ([6]; listed as TFC): 0.13 mL and 0.12 mL and 0.18 mL and 0.14 mL and 0.17 mL
- Paw edema, HR, individual animal ([6]; listed as TFC): 0.19 mL and 0.18 mL and 0.13 mL and 0.14 mL and 0.12 mL
- Arthritis score ([7]; Day 0): 2.5±1.0 total score
- Arthritis score ([7]; Day 2): 4.5±1.4 total score
- Arthritis score ([7]; Day 5): 6.5±2.5 total score
- Arthritis score ([7]; Day 7): 8.7±2.3 total score
- Arthritis score ([7]; Day 9): 9.0±2.5 total score
- Arthritis score ([7]; Day 12): 10.3±2.6 total score
- Arthritis score ([7]; Day 14): 11.3±3.3 total score
- Arthritis score (in words) [7]: 관절염 지수가 개선되지 않았다
- Bone destruction [8]: 2.5±0.5
- Cartilage damage [8]: 1.8±0.4
- Histopathological examination, total [8]: 7.3±0.8
- Synovium proliferation [8]: 3.0±0.0
- Plasma TNF-α (TNF-α [9]): 885.8 pg/mL
- Plasma TNF-α (in words) (TNF-α [9]): 혈장 TNF-α가 감소하지 않은

Compound: [H]/N=C(\N/C(=N/[H])Nc1ccc(Cl)cc1)NC(C)C [프로구아닐]
- Paw edema, HL, mean [6]: 0.15 mL
- Paw edema, HR, mean [6]: 0.16 mL
- Paw edema, HL, individual animal ([6]; listed as PG): 0.13 mL and 0.14 mL and 0.16 mL and 0.15 mL and 0.17 mL and 0.12 mL
- Paw edema, HR, individual animal ([6]; listed as PG): 0.16 mL and 0.19 mL and 0.14 mL and 0.13 mL
- Arthritis score ([7]; Day 0): 2.5±1.0 total score
- Arthritis score ([7]; Day 2): 4.5±1.0 total score
- Arthritis score ([7]; Day 5): 6.7±1.2 total score
- Arthritis score ([7]; Day 7): 8.3±1.5 total score
- Arthritis score ([7]; Day 9): 9.5±2.2 total score
- Arthritis score ([7]; Day 12): 10.2±1.6 total score
- Arthritis score ([7]; Day 14): 11.2±1.2 total score
- Arthritis score (in words) [7]: 관절염 지수가 개선되지 않았다
- Bone destruction [8]: 2.7±0.8
- Cartilage damage [8]: 2.3±0.8
- Histopathological examination, total [8]: 7.8±1.9
- Synovium proliferation [8]: 2.8±0.4
- TNF-α expression (TNF-α [11]): 988.1
- TNF-α expression inhibition (TNF-α [11]; drug treatment 2 h or 24 h, pyrimethamine 0.2 μM, proguanil 5 μM): TNF-α의 발현량을 억제하지 못했고
- Plasma TNF-α (TNF-α [9]): 904.4 pg/mL
- Plasma TNF-α (in words) (TNF-α [9]): 혈장 TNF-α가 감소하지 않은

Compound: CCN(CCO)CCCC(C)Nc1ccnc2cc(Cl)ccc12 (centres unmarked) [히드록시클로로퀸, Hydroxychloroquine]
- Paw edema, HL, mean [6]: 0.17 mL
- Paw edema, HR, mean [6]: 0.16 mL
- Paw edema, HL, individual animal ([6]; listed as HCQ): 0.17 mL and 0.13 mL and 0.19 mL and 0.15 mL and 0.16 mL
- Paw edema, HR, individual animal ([6]; listed as HCQ): 0.19 mL and 0.15 mL and 0.13 mL and 0.16 mL and 0.18 mL and 0.14 mL
- STAT3 nuclear translocation (STAT3): LPS 16 시간 자극에 의한 STAT3의 핵이동을 억제함
- Arthritis score ([7]; Day 0): 2.5±1.2 total score
- Arthritis score ([7]; Day 2): 4.0±0.6 total score
- Arthritis score ([7]; Day 5): 6.5±0.8 total score
- Arthritis score ([7]; Day 7): 9.3±2.0 total score
- Arthritis score ([7]; Day 9): 10.3±2.1 total score
- Arthritis score ([7]; Day 12): 11.3±2.5 total score
- Arthritis score ([7]; Day 14): 12.0±2.8 total score
- Arthritis score (in words) [7]: 관절염 지수가 개선되지 않았다
- Bone destruction [8]: 2.7±0.5
- Cartilage damage [8]: 2.0±1.1
- Histopathological examination, total [8]: 7.7±1.5
- Synovium proliferation [8]: 3.0±0.0
- TNF-α expression (TNF-α [1]; 2hr): 339.5 pg/mL
- TNF-α expression (TNF-α [1]; 24hr): 3564.6 pg/mL
- TNF-α expression (TNF-α [11]): 762.2
- Plasma TNF-α (TNF-α [9]): 839.5 pg/mL
- Plasma TNF-α (in words) (TNF-α [9]): 혈장 TNF-α가 감소하지 않은
